Measurements: patent US20240158446A1, “CYCLIC COMPOUND HAVING SELECTIVE INHIBITORY ACTION ON KRAS OVER HRAS AND NRAS” (CHUGAI SEIYAKU KABUSHIKI KAISHA, priority 2021, published 2024)
pIC50, pKd: −log10 of the molar value. Where two headings read alike, the source gives them in different places. *1 amine or outer side, *2 acyl side, *3 side chain or, on linkers, in order; H or OH if unused. Where a SMILES comes first, the peptide text is derived from it. Bridges are numbered along the chain shown (N, C = ends). [ ]: non-standard residue; d: D form. The star is where a group is joined. hPhe(3-Cl-4-CF3) = N[C@@H](CCc1ccc(C(F)(F)F)c(Cl)c1)C(=O)O; NPrPhe(4-CF3) = CCCN[C@@H](Cc1ccc(C(F)(F)F)cc1)C(=O)O; NMeGly(cPent) = CN[C@H](C(=O)O)C1CCCC1; NMeD = CN[C@@H](CC(=O)O)C(=O)O; X1 = O=C(CN(CC(F)F)[*:1])[*:2]; NMeL = CN[C@@H](CC(C)C)C(=O)O; Morpholide = C1CN(*)CCO1; Ac5c = NC1(C(=O)O)CCCC1; Sar = CNCC(=O)O

Experiments:
[1] = test system: human lung cancer strain NCI-H441;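 further: cell proliferation inhibition after four days measured by CellTiter-Glo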
[2] = target: GDP-bound NRAS wild-type protein (Homo sapiens, UniProt P01111); experiment: Binding to NRAS by surface plasmon resonance (SPR), Single Cycle Kinetics
[3] = target: GDP-bound HRAS wild-type protein (Homo sapiens, UniProt P01112); experiment: Binding to HRAS by surface plasmon resonance (SPR), Single Cycle Kinetics
[4] = target: GDP-bound KRAS wild-type protein (Homo sapiens, UniProt P01116); experiment: Binding to KRAS by surface plasmon resonance (SPR), Single Cycle Kinetics
[5] = SPR, GDP-bound NRAS wild-type protein vs GDP-bound KRAS wild-type protein
[6] = SPR, GDP-bound HRAS wild-type protein vs GDP-bound KRAS wild-type protein
[7] = SPR, Single Cycle Kinetics, GDP-bound KRAS wild-type protein, read-out: KRAS KD
[8] = SPR, GDP-bound NRAS wild-type protein vs GDP-bound KRAS wild-type protein, KD ratio class
[9] = SPR, GDP-bound HRAS wild-type protein vs GDP-bound KRAS wild-type protein, KD ratio class
[10] = SPR, Single Cycle Kinetics, 1:1 binding model, GDP-bound KRAS wild-type protein, read-out: KRAS KD
[11] = SPR Single Cycle Kinetics, GDP-bound KRAS wild-type protein, 1:1 binding model, read-out: KRAS KD

Chain of GDP-bound HRAS wild-type protein (P01112 whole entry): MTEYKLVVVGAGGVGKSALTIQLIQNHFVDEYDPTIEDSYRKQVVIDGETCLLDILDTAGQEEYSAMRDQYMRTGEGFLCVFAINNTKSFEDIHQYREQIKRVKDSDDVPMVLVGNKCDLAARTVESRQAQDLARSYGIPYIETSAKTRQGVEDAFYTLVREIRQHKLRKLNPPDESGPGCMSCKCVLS
Chain of GDP-bound NRAS wild-type protein (P01111 whole entry): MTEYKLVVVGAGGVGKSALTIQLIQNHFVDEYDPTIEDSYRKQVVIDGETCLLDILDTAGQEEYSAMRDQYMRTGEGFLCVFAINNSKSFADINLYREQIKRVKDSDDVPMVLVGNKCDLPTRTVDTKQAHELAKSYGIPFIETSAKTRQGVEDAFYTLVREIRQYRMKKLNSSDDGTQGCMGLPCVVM
Chain of GDP-bound KRAS wild-type protein (P01116 whole entry): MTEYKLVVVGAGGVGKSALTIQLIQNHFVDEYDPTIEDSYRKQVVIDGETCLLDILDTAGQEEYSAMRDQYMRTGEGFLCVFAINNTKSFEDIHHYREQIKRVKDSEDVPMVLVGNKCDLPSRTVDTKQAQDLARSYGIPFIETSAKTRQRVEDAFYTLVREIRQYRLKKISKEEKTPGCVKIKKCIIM

pIC50 [1]	pKd [4, 7]	pKd [4, 10]	SMILES	NRAS/KRAS (ratio of KD value for NRAS to KD value for KRAS) [2, 5]	HRAS/KRAS (ratio of KD value for HRAS to KD value for KRAS) [3, 6]	NRAS/KRAS (ratio of KD value for NRAS to KD value for KRAS) [2, 8]	HRAS/KRAS (ratio of KD value for HRAS to KD value for KRAS) [3, 9]	further results
7.64	9.48		CCC[C@H]1C(=O)N[C@@H]([C@@H](C)CC)C(=O)N2C[C@@H](OC)C[C@H]2C(=O)N(C)[C@H]2C/C=C\CCN(C2=O)[C@@H](Cc2ccc(C)cc2)C(=O)N(C)CC(=O)N[C@@H](CCc2ccc(C(F)(F)F)c(OC)c2)C(=O)N2C[C@@H](C)C[C@H]2C(=O)NC2(CC(C)(C)C2)C(=O)N(C)[C@@H](C2CCCC2)C(=O)N(C)[C@H](C(=O)N(C)C)CC(=O)N1C [PP2388]	A (a compound having 10 or more and less than 20 is denoted as A)	B (a compound having 3 or more and less than 10 is denoted as B)			
8.52		10.14	CCO[C@@H]1C[C@H]2C(=O)NC3(CC(C)(C)C3)C(=O)N(C)[C@@H](C3CCCC3)C(=O)N(C)[C@H](C(=O)N(C)C)CC(=O)N(C)[C@@H](CC3CCC3)C(=O)N[C@@H]([C@@H](C)CC)C(=O)N(C)CC(=O)N(C)[C@H]3C/C=C\CCN(C3=O)[C@@H](Cc3ccc(C(F)(F)F)cc3)C(=O)N(C)CC(=O)N[C@@H](CCc3ccc(C(F)(F)F)c(OC)c3)C(=O)N2C1 [PP1564]			A (a compound having 10 or more and less than 20 is denoted as A)	A (a compound having 10 or more and less than 20 is denoted as A)	
8.34	9.74		C#CCN1CC(=O)N(C)[C@H]2C/C=C\CCN(C2=O)[C@@H](Cc2ccc(C(F)(F)F)cc2)C(=O)N(C)CC(=O)N[C@@H](CCc2ccc(C(F)(F)F)c(OC)c2)C(=O)N2C[C@H](OCC)C[C@H]2C(=O)NC2(CC(C)(C)C2)C(=O)N(C)[C@@H](C2CCCC2)C(=O)N(C)[C@H](C(=O)N(C)C)CC(=O)N(C)[C@@H](CC)C(=O)N[C@@H]([C@@H](C)CC)C1=O [PP2091]	A (a compound having 10 or more and less than 20 is denoted as A)	B (a compound having 3 or more and less than 10 is denoted as B)			
6.40			CCC[C@H]1C(=O)N[C@@H](CC(C)C)C(=O)N(CCOC)CC(=O)N(C)[C@H]2C/C=C\CCN(C2=O)[C@@H](Cc2ccc(C)cc2)C(=O)N(C)CC(=O)N[C@@H](CCc2ccc(C(F)(F)F)c(OC)c2)C(=O)N2C[C@H](OCC)C[C@H]2C(=O)NC2(CCC2)C(=O)N(C)[C@@H](C2CCCC2)C(=O)N(C)[C@H](C(=O)N(C)C)CC(=O)N1C [PP2542]					NRAS/KRAS (ratio of KD value with respect to GDP-bound NRAS wild-type protein to KD value with respect to KRAS) ([2]; SPR KD ratio NRAS/KRAS, class symbols): B (a compound having 3 or more and less than 10 is denoted as B); HRAS/KRAS (ratio of KD value with respect to GDP-bound HRAS wild-type protein to KD value with respect to KRAS) ([3]; SPR KD ratio HRAS/KRAS, class symbols): B (a compound having 3 or more and less than 10 is denoted as B); pKd [4, 11]: 8.34

Second part, the compound before the results:

SMILES	pIC50 [1]	pKd [4, 7]	pKd [4, 10]	NRAS/KRAS (ratio of KD value for NRAS to KD value for KRAS) [2, 5]	HRAS/KRAS (ratio of KD value for HRAS to KD value for KRAS) [3, 6]	NRAS/KRAS (ratio of KD value for NRAS to KD value for KRAS) [2, 8]	HRAS/KRAS (ratio of KD value for HRAS to KD value for KRAS) [3, 9]	further results
CCO[C@@H]1C[C@H]2C(=O)NC3(CCC3)C(=O)N(C)[C@@H](C(CC)CC)C(=O)N(C)[C@H](C(=O)N(C)C)CC(=O)N(C)[C@@H](CC)C(=O)N[C@@H]([C@@H](C)CC)C(=O)N(C)CC(=O)N(C)[C@H]3C/C=C\CCN(C3=O)[C@@H](Cc3ccc(C(F)(F)F)cc3)C(=O)N(C)CC(=O)N[C@@H](CCc3ccc4sccc4c3)C(=O)N2C1 [PP1223]	6.93		8.92			AA (a compound having 20 or more is denoted as AA)	A (a compound having 10 or more and less than 20 is denoted as A)	
CCCC[C@H]1C(=O)N[C@@H]([C@@H](C)CC)C(=O)N(C)CC(=O)N(C)[C@H]2C/C=C\CCN(C2=O)[C@@H](Cc2ccc(C(F)(F)F)cc2)C(=O)N(C)CC(=O)N[C@@H](CCc2cc(F)c(C(F)(F)F)c(F)c2)C(=O)N2C[C@H](OCC)C[C@H]2C(=O)NC2(CCC2)C(=O)N(C)[C@@H](C2CCCC2)C(=O)N(C)[C@H](C(=O)N2CCCC2)CC(=O)N1C [PP1396, (2S,8S,12R,14S,20S,23S,27S,30S,36S,38Z)-27-butyl-20-cyclopentyl-8-[2-[3,5-difluoro-4-(trifluoromethyl)phenyl]ethyl]-12-ethoxy-4,19,22,26,32,35-hexamethyl-30-[(1S)-1-methylpropyl]-23-(pyrrolidine-1-carbonyl)-2-[[4-(trifluoromethyl)phenyl]methyl]spiro[1,4,7,10,16,19,22,26,29,32,35-undecazatricyclo[34.5.1.0^10,14]dotetracont-38-ene-17,1′-cyclobutane]-3,6,9,15,18,21,25,28,31,34,42-undecone]	7.71		9.85			AA (a compound having 20 or more is denoted as AA)	A (a compound having 10 or more and less than 20 is denoted as A)	
CCO[C@@H]1C[C@H]2C(=O)NC3(CCCC3)C(=O)N(C)[C@@H](C(CC)CC)C(=O)N(C)[C@H](C(=O)N3CCCC3)CC(=O)N(C)[C@@H](COC)C(=O)N[C@@H]([C@@H](C)CC)C(=O)N(C)CC(=O)N(C)[C@H]3C/C=C\CCN(C3=O)[C@@H](CC3CCCCC3)C(=O)N(C)CC(=O)N[C@@H](CCc3cc(F)c(C(F)(F)F)c(F)c3)C(=O)N2C1 [PP1439]	7.06		8.92			AA (a compound having 20 or more is denoted as AA)	A (a compound having 10 or more and less than 20 is denoted as A)	
CCCN1C(=O)CN(C)C(=O)CN(CC(F)F)C(=O)[C@H]([C@@H](C)CC)NC(=O)[C@H](CC(C)C)N(C)C(=O)C[C@@H](C(=O)N2CCOCC2)N(C)C(=O)[C@H](C2CCCC2)N(C)C(=O)C2(CCCC2)NC(=O)[C@@H]2CCCN2C(=O)[C@H](CCc2ccc(C(F)(F)F)c(Cl)c2)NC(=O)CN(C)C(=O)[C@@H]1Cc1ccc(C(F)(F)F)cc1 [PP0752] ([NMeL]I[X1][Sar][NPrPhe(4-CF3)][Sar][hPhe(3-Cl-4-CF3)]P[Ac5c][NMeGly(cPent)][NMeD]-Morpholide; lactam N-11)	7.59							NRAS/KRAS (ratio of KD value with respect to NRAS to KD value with respect to KRAS) [2, 5]: B (a compound having 3 or more and less than 10 is denoted as B); HRAS/KRAS (ratio of KD value with respect to HRAS to KD value with respect to KRAS) [3, 6]: B (a compound having 3 or more and less than 10 is denoted as B); pKd [4, 11]: 9.27
CCC[C@H]1C(=O)N[C@@H]([C@@H](C)CC)C(=O)N(C)CC(=O)N(C)[C@H]2C/C=C\CCN(C2=O)[C@@H](Cc2ccc(C)cc2)C(=O)N(C)CC(=O)N[C@@H](CCc2ccc(C(F)(F)F)c(OC)c2)C(=O)N2C[C@H](OCC)C[C@H]2C(=O)N(C)C2(CCC2)C(=O)N(C)[C@@H](C2CCCC2)C(=O)N(C)[C@H](C(=O)N2CCCCC2)CC(=O)N1C [PP3104, (2S,8S,12R,14S,20S,23S,27S,30S,36S,38Z)-20-cyclopentyl-12-ethoxy-8-[2-[3-methoxy-4-(trifluoromethyl)phenyl]ethyl]-4,16,19,22,26,32,35-heptamethyl-30-[(1S)-1-methylpropyl]-23-(piperidine-1-carbonyl)-27-propyl-2-(p-tolylmethyl)spiro[1,4,7,10,16,19,22,26,29,32,35-undecazatricyclo[34.5.1.0^10,14]dotetracont-38-ene-17,1′-cyclobutane]-3,6,9,15,18,21,25,28,31,34,42-undecone]		10.01		A (a compound having 10 or more and less than 20 is denoted as A)	A (a compound having 10 or more and less than 20 is denoted as A)			pIC50 ([1]; read-out: NCI-H441 cell proliferation inhibitory activity, 50% proliferation inhibitory concentration (IC50 value), NCI-H441, four days, CellTiter-Glo): 8.42; ratio of the KD value with respect to GDP-bound NRAS wild-type protein to the KD value with respect to KRAS ([2]; SPR, KD(NRAS)/KD(KRAS)): A (a compound having 10 or more and less than 20 is denoted as A); ratio of the KD value with respect to GDP-bound HRAS wild-type protein to the KD value with respect to KRAS ([3]; SPR, KD(HRAS)/KD(KRAS)): A (a compound having 10 or more and less than 20 is denoted as A); pKd ([4]; SPR, Single Cycle Kinetics, 1:1 binding model, read-out: KD value with respect to GDP-bound KRAS wild-type protein): 10.01
